Key:
SARS-CoV-2 3CL^pro = SARS-CoV-2 3CL^pro (Severe acute respiratory syndrome coronavirus 2, UniProt P0DTD1); assay: biochemical; assay type: biochemical; settings: for time dependence of the level of inhibition: incubation time 0-60 min, inhibitor close to its IC50 concentration (Fig. S4)
3CL^pro = 3CL^pro (Severe acute respiratory syndrome coronavirus 2, UniProt P0DTD1); assay: LC-MS detection of 3CLpro-inhibitor covalent adducts; assay type: binding, SARS-CoV-2
SARS-CoV 3CL^pro = settings: cited from earlier work

**Q.** Which results are given for `C=CS(=O)(=O)N(c1ccc(C(C)(C)C)cc1)C(C(=O)NC1CCCCC1)c1cccnc1` (stereo not drawn) [14a, 2-(N-(4-(tert-butyl)phenyl)vinylsulfonamido)-N-cyclohexyl-2-(pyridin-3-yl)acetamide]?
**A.** IC50 (SARS-CoV-2 3CL^pro): 0.5 µM; time dependence of the level of inhibition (SARS-CoV-2 3CL^pro): increased with incubation time; presence of 3CLpro-inhibitor adduct by LC-MS (3CL^pro): confirmed

**Q.** With `C=CS(=O)(=O)N(c1ccc(C(C)(C)C)cc1)[C@H](C(=O)N[C@@H](C)c1ccccc1)c1cccnc1` (mixture of isomers) [14h, (S)- and (R)-2-(N-(4-(tert-butyl)phenyl)vinylsulfonamido)-N-((S)-1-phenylethyl)-2-(pyridin-3-yl)acetamide] as the compound, how does the inhibition at 50 µM (SARS-CoV-2 3CL^pro) read?
**A.** The inhibition at 50 µM was greater than 95%.

**Q.** For `CC(C)(C)c1ccc(N(C(=O)c2c[nH]cn2)C(C(=O)NC2CCCCC2)c2cccnc2)cc1` (stereo not drawn) [X77, N-(4-(tert-butyl)phenyl)-N-(2-(cyclohexylamino)-2-oxo-1-(pyridin-3-yl)ethyl)-1H-imidazole-5-carboxamide], which IC50 (SARS-CoV 3CL^pro) is on record?
**A.** Its IC50 is 3.4 µM.

**Q.** What does the source list for `C=CS(=O)(=O)N(c1ccc(C(C)(C)C)cc1)[C@@H](C(=O)N[C@@H](C)c1ccccc1)c1cccnc1` (mixture of isomers) [14g, (S)- and (R)-2-(N-(4-(tert-butyl)phenyl)vinylsulfonamido)-N-((S)-1-phenylethyl)-2-(pyridin-3-yl)acetamide]?
**A.** inhibition at 50 µM (SARS-CoV-2 3CL^pro): > 95%; times more potent than diastereomer 14h (SARS-CoV-2 3CL^pro; ratio of IC50): approximately 20 times

**Q.** With `C=CC(=O)N(c1ccc(C(C)(C)C)cc1)C(C(=O)NC1CCCCC1)c1cccnc1` (stereo not drawn) [6a, N-(4-(tert-butyl)phenyl)-N-(2-(cyclohexylamino)-2-oxo-1-(pyridin-3-yl)ethyl) acrylamide] as the compound, how does the IC50 (SARS-CoV-2 3CL^pro) read?
**A.** The IC50 was 11.1 ± 1.5 µM.

**Q.** Which results are given for `CC(C)(C)c1ccc(N(C(=O)CCl)C(C(=O)NC2CCCCC2)c2cccnc2)cc1` (stereo not drawn) [16a, N-(4-(tert-butyl)phenyl)-2-chloro-N-(2-(cyclohexylamino)-2-oxo-1-(pyridin-3-yl)ethyl) acetamide]?
**A.** time dependence of the level of inhibition (SARS-CoV-2 3CL^pro): increased with incubation time; presence of 3CLpro-inhibitor adduct by LC-MS (3CL^pro): confirmed

**Q.** Which “improvement in potency over alkynylamide analogue 13a” value (SARS-CoV-2 3CL^pro; ratio of IC50) does the source give for `CC(C)(C)c1ccc(N(C(=O)C#CCO)C(C(=O)NC2CCCCC2)c2cccnc2)cc1` (stereo not drawn) [23a, N-(4-(tert-butyl)phenyl)-N-(2-(cyclohexylamino)-2-oxo-1-(pyridin-3-yl)ethyl)-4-hydroxybut-2-ynamide] here?
**A.** Its value is roughly 10 fold.
